{"source": "ChEMBL document CHEMBL6182916", "about": "“Unexpected Discovery of a Novel Triphenylphosphonium Alkylalcohol That Triggers Cancer Cell Death via Mitophagy and Ferroptosis” (J Med Chem, 2025)", "key": {"[1]": {"test_system": "Mitochondrial membrane", "test": "Induction of mitochondrial membrane depolarization in HEK293T cells assessed as JC-1 monomer ratio by measuring increase green fluorescence at 0.25 uM incubated for 4 hrs by JC-1 staining based confocal microscopy analysis", "type": "cell membranes", "conditions": "Homo sapiens"}, "[2]": {"test_system": "HCC827", "test": "Antiproliferative activity against human HCC827 cells assessed as increase in cell viability at 1 uM measured after 48 hrs in presence of Rapa by MTT assay", "type": "functional, cell-based"}, "[3]": {"test": "Toxicity in female BALB/c mouse assessed as histopathological changes in liver at 30 mg/kg, ip measured for 7 days by H and E staining based analysis", "type": "organism-based", "conditions": "in vivo, 168 h, time 7 day"}, "[4]": {"test_system": "HCC827", "test": "Induction of ferroptosis in human HCC827 cells assessed as decrease in glutathione reductase activity at 0.25 to 0.5 uM incubated for 24 hrs by DTNB solution based based microplate reader analysis", "type": "functional, cell-based", "conditions": "dose 0.25-0.5 µM"}, "[5]": {"test_system": "HCC827", "test": "Induction of mitochondrial dysfunction in human HCC827 cells assessed as cristae reduction by TEM analysis", "type": "functional, cell-based"}, "[6]": {"test_system": "HCC827", "test": "Induction of mitochondrial dysfunction in human HCC827 cells assessed as appearance of disrupted cristae at 1 uM after 24 hrs by TEM analysis", "type": "functional, cell-based"}, "[7]": {"test_system": "HCC827", "test": "Induction of apoptosis in human HCC827 cells assessed as late apoptotic cells at 1 uM measured after 48 hrs by annexin V and PI staining based flow cytometry analysis (reference value: 1.29%)", "type": "functional"}, "[8]": {"test_system": "HCC827", "test": "Induction of apoptosis in human HCC827 cells assessed as necrotic cells at 1 uM measured after 48 hrs by annexin V and PI staining based flow cytometry analysis (reference value: 1.18%)", "type": "functional"}, "[9]": {"test_system": "HCC827", "test": "Induction of cell cycle arrest in human HCC827 cells assessed as accumulation of cells at G2 phase at 0.1 uM incubated for 24 hrs by PI staining based flow cytometry analysis (reference value: 7.15%)", "type": "functional"}, "[10]": {"test_system": "HCC827", "test": "Induction of cell cycle arrest in human HCC827 assessed as increase in p21 expression level at 0.25 to 5 uM measured after 24 hrs by Western blot analysis", "type": "functional, cell-based", "conditions": "dose 0.25-5 µM"}, "[11]": {"test_system": "HCC827", "test": "Induction of ferroptosis in human HCC827 cells assessed as increase in MDA content incubated for 24 hrs by absorbance based analysis", "type": "functional, cell-based", "conditions": "dose 0.25-0.5 µM"}, "[12]": {"test": "Toxicity in female BALB/c mouse assessed as histopathological changes in heart at 30 mg/kg, ip measured for 7 days by H and E staining based analysis", "type": "organism-based", "conditions": "in vivo, 168 h, time 7 day"}, "[13]": {"test_system": "HCC827", "test": "Downregulation of HK-2 expression level in human HCC827 cells incubated for 24 hrs by Western blot analysis", "type": "functional, cell-based", "conditions": "dose 0.25-0.5 µM"}, "[14]": {"test_system": "HCC827", "test": "Antiproliferative activity against human HCC827 cells assessed as cell viability at 1 uM measured after 48 hrs in presence of SAS by MTT assay relative to control", "type": "functional", "conditions": "read-out: Activity"}, "[15]": {"test_system": "HCC827", "test": "Upregulation of parkin phosphorylation level in human HCC827 cells at 0.25 to 0.5 uM measured after 24 hrs", "type": "functional, cell-based", "conditions": "dose 0.25-0.5 µM"}, "[16]": {"test": "Antiproliferative activity against HEK293T cells assessed as inhibition of cell growth measured after 72 hrs by MTT assay", "type": "toxicity, cell-based, HEK-293T", "conditions": "human"}, "[17]": {"test_system": "HCC827", "test": "Induction of ferroptosis in human HCC827 cells assessed as decrease in xCT expression incubated for 24 hrs", "type": "functional, cell-based", "conditions": "dose 0.25-0.5 µM"}, "[18]": {"test": "Toxicity in female BALB/c mouse assessed as histopathological changes in spleen at 30 mg/kg, ip measured for 7 days by H and E staining based analysis", "type": "organism-based", "conditions": "in vivo, 168 h, time 7 day"}, "[19]": {"test_system": "HCC827", "test": "Downregulation of VDAC1 expression level in human HCC827 cells incubated for 24 hrs by Western blot analysis", "type": "functional, cell-based", "conditions": "dose 0.25-5 µM"}, "[20]": {"test_system": "HCC827", "test": "Induction of mitochondrial dysfunction in human HCC827 cells assessed as reduction in glycolytic reserve at 0.125 to 5 uM incubated for 4 hrs by Seahorse XF96 extracellular flux analyzer", "type": "functional, cell-based", "conditions": "dose 0.125-5 µM"}, "[21]": {"test": "Toxicity in female Kunming mouse assessed as animal death at 70 mg/kg, ip measured every two days for 7 days", "type": "organism-based", "conditions": "in vivo, 168 h, time 7 day"}, "[22]": {"test_system": "HEK-293T", "test": "Downregulation of TIMM23 expression level in human HEK293T cells harbouring PINK knockout at 0.25 to 0.5 uM", "type": "functional, cell-based", "conditions": "dose 0.25-0.5 µM"}, "[23]": {"test_system": "MDA-MB-231", "test": "Antiproliferative activity against human MDA-MB-231 cells assessed as inhibition of cell growth measured after 72 hrs by MTT assay", "type": "functional, cell-based", "conditions": "MDA-MB-231, 72 h"}, "[24]": {"test_system": "HCC827", "test": "Induction of mitophagy in human HCC827 cells assessed as increase in LC3-II/LC-3-I ratio at 0.5 uM measured after 24 hrs by Western blot analysis", "type": "functional, cell-based"}, "[25]": {"test_system": "HCC827", "test": "Effect on ATP5A expression in human HCC827 cells at 0.25 to 0.5 uM incubated for 24 hrs by Western blot analysis", "type": "functional, cell-based", "conditions": "dose 0.25-0.5 µM"}, "[26]": {"test_system": "HCC827", "test": "Induction of apoptosis in human HCC827 cells assessed as viable cells at 1 uM measured after 24 hrs by annexin V and PI staining based flow cytometry analysis (reference value: 95.10%)", "type": "functional", "conditions": "read-out: Activity"}, "[27]": {"test": "Toxicity in male Kunming mouse assessed as change in body weight at 70 mg/kg, ip measured every two days for 7 days", "type": "organism-based", "conditions": "in vivo, 168 h, time 7 day"}, "[28]": {"test_system": "HCC827", "test": "Downregulation of SDHB expression in human HCC827 cells incubated for 24 hrs by Western blot analysis", "type": "functional, cell-based", "conditions": "dose 0.25-0.5 µM"}, "[29]": {"test_system": "HEK-293T", "test": "Downregulation of […] expression level in human HEK293T cells harbouring PINK knockout at 0.25 to 0.5 uM", "type": "functional, cell-based", "conditions": "dose 0.25-0.5 µM"}, "[30]": {"test": "Toxicity in male Kunming mouse assessed as animal death at 70 mg/kg, ip measured every two days for 7 days", "type": "organism-based", "conditions": "in vivo, 168 h, time 7 day"}, "[31]": {"test_system": "HCC827", "test": "Induction of apoptosis in human HCC827 cells assessed as viable cells at 1.0 uM measured after 48 hrs by annexin V and PI staining based flow cytometry analysis (reference value: 96.74%)", "type": "functional", "conditions": "read-out: Activity"}, "[32]": {"test_system": "NCI-H1299", "test": "Antiproliferative activity against human NCI-H1299 cells assessed as inhibition of cell growth measured after 72 hrs by MTT assay", "type": "functional, cell-based", "conditions": "NCI-H1299, 72 h"}, "[33]": {"test_system": "HCC827", "test": "Downregulation of HK-2 expression level in human HCC827 cells 0.25 to 0.5 uM incubated for 24 hrs in presence of BFA by Western blot analysis", "type": "functional, cell-based", "conditions": "dose 0.25-0.5 µM"}, "[34]": {"test_system": "HCC827", "test": "Induction of mitochondrial dysfunction in human HCC827 cells assessed as suppression of ATP production incubated for 4 hrs by Seahorse XF96 extracellular flux analyzer", "type": "functional, cell-based", "conditions": "dose 0.125-5 µM"}, "[35]": {"test_system": "HCC827", "test": "Antimetastatic activity against human HCC827 cells xenografted in female nude mouse model assessed as increase in cadherin level at 5 to 10 mg/kg, ip by Western blot analysis", "type": "functional, organism-based", "conditions": "dose 5-10 mg/kg"}, "[36]": {"test_system": "HCC827", "test": "Antiproliferative activity against human HCC827 cells assessed as inhibition of cell growth measured after 72 hrs by MTT assay", "type": "functional, cell-based", "conditions": "HCC827, 72 h"}, "[37]": {"test": "Toxicity in female nude mouse assessed as effect om weight loss at 5 to 10 mg/kg, ip measured after 14 days", "type": "organism-based", "conditions": "in vivo, 336 h, dose 5-10 mg/kg, time 14 day"}, "[38]": {"test_system": "HEK-293T", "test": "Downregulation of […] expression level in human HEK293T cells", "type": "functional, cell-based", "conditions": "dose 0.25-0.5 µM"}, "[39]": {"test_system": "HCC827", "test": "Antitumor activity against human HCC827 cells xenografted in female nude mouse model assessed as reduction in tumor size at 5 to 10 mg/kg, ip measured every two days for 14 days", "type": "functional, organism-based", "conditions": "dose 5-10 mg/kg, time 14.0 day"}}, "note": "Activity calls are given as the source filed them. No cut-off for these calls is given here."}
{"smiles": "Cc1ccc([P+](CCCCCCCCCCO)(c2ccc(C)cc2)c2ccc(C)cc2)cc1.[Br-]", "values": [{"measurement": "Activity", "setting": "[1]", "result": "inactive"}, {"measurement": "Activity", "setting": "[2]", "result": "inactive"}, {"measurement": "Activity", "setting": "[3]", "result": "Non-toxic"}, {"measurement": "Activity", "setting": "[4]", "result": "Active"}, {"measurement": "Activity", "setting": "[5]", "result": "Active"}, {"measurement": "Activity", "setting": "[6]", "result": "Active"}, {"measurement": "Activity", "setting": "[7]", "result": 9.96, "unit": "%"}, {"measurement": "Activity", "setting": "[8]", "result": 2.19, "unit": "%"}, {"measurement": "Activity", "setting": "[9]", "result": 4.83, "unit": "%"}, {"measurement": "Activity", "setting": "[10]", "result": "Active"}, {"measurement": "Activity", "setting": "[11]", "result": "Dose-dependent-effect"}, {"measurement": "Activity", "setting": "[12]", "result": "Non-toxic"}, {"measurement": "Activity", "setting": "[13]", "result": "Dose-dependent-effect"}, {"measurement": "viability at 1 µM", "setting": "[14]", "result": 7.48, "unit": "%"}, {"measurement": "Activity", "setting": "[15]", "result": "Active"}, {"measurement": "IC50 at 72 h", "setting": "[16]", "result": 1520, "unit": "nM"}, {"measurement": "Activity", "setting": "[17]", "result": "Dose-dependent-effect"}, {"measurement": "Activity", "setting": "[18]", "result": "Non-toxic"}, {"measurement": "Activity", "setting": "[19]", "result": "Dose-dependent-effect"}, {"measurement": "Activity", "setting": "[20]", "result": "Active"}, {"measurement": "Activity", "setting": "[21]", "result": "Toxic"}, {"measurement": "Activity", "setting": "[22]", "result": "inactive"}, {"measurement": "IC50", "setting": "[23]", "result": 100, "unit": "nM"}, {"measurement": "Activity", "setting": "[24]", "result": "Active"}, {"measurement": "Activity", "setting": "[25]", "result": "Active"}, {"measurement": "viability at 1 µM", "setting": "[26]", "result": 93.6, "unit": "%"}, {"measurement": "Activity", "setting": "[27]", "result": "Toxic"}, {"measurement": "Activity", "setting": "[28]", "result": "Active"}, {"measurement": "Activity", "setting": "[29]", "result": "inactive"}, {"measurement": "Activity", "setting": "[30]", "result": "Toxic"}, {"measurement": "viability at 1 µM", "setting": "[31]", "result": 82.8, "unit": "%"}, {"measurement": "IC50", "setting": "[32]", "result": 210, "unit": "nM"}, {"measurement": "Activity", "setting": "[33]", "result": "inactive"}, {"measurement": "Activity", "setting": "[34]", "result": "Dose-dependent-effect"}, {"measurement": "Activity", "setting": "[35]", "result": "Active"}, {"measurement": "IC50", "setting": "[36]", "result": 70, "unit": "nM"}, {"measurement": "Activity", "setting": "[37]", "result": "Non-toxic"}, {"measurement": "Activity", "setting": "[38]", "result": "Dose-dependent-effect"}, {"measurement": "Activity", "setting": "[39]", "result": "Active"}]}
